“Also recorded” adds a separate entry of the source.

The subject of experiment [1] is HT-22 cells. Nature of the experiment: TNFα-induced ROS. The format is cell-based, mouse. Conditions: for ROS suppression at 40 μM / effect on TNFα-induced ROS, in words: 1 μg/mL TNFα; for ROS suppression at 40 μM: 40 μM compound, Figure 4A; for effect on TNFα-induced ROS, in words: all concentrations tested.
Another experiment relates to THP-1 cells. Description: Measurement of cellular NAD+ levels in THP-1 cell cultures. The format is cell-based, human. Conditions: for ability to raise NAD+ levels compared with parent NP-A3-B2: initial screening, 3 μM, 24 h, data not shown.
Experiment [2] relates to HT-22 cells. Nature of the experiment: Glutamate-induced ROS. The experiment is classed as cell-based, mouse. To be noted: 75 mM glutamate, 20 μM and 40 μM compound, Figure 4D.
For another experiment, the target named is NAMPT (Homo sapiens, UniProt P43490). Nature of the experiment: NAMPT coupled enzyme activity assay. The experiment is classed as biochemical.
NAMPT, sequence (P43490 whole entry): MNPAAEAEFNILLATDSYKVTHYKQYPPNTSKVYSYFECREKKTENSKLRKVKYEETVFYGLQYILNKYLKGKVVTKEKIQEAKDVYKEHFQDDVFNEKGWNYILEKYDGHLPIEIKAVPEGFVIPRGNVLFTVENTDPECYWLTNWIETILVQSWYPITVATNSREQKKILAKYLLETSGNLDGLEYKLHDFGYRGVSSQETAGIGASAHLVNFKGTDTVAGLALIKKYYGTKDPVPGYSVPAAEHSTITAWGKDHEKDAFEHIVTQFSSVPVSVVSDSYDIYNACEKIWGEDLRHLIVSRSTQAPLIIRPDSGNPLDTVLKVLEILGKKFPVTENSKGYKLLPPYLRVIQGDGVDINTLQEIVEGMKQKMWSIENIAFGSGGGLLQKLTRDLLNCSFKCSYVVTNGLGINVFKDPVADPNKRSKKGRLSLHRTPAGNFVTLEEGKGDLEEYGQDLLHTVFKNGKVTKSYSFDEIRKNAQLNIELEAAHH

As to `COc1ccc(CN(CCC2(C(C)C)CCOC(C)(C)C2)C(=O)c2cccs2)cc1` (stereo not shown) [JGB-1-137], the “ROS suppression at 40 μM” value in the experiment with HT-22 cells [1] is listed as “significantly suppressed ROS”. Turning to `CC(C)C1(CCN(Cc2ccc3[nH]ccc3c2)C(=O)c2ccco2)CCOC(C)(C)C1` (stereo not shown) [JGB-1-134], in the experiment on THP-1 cells, the “ability to raise NAD+ levels compared with parent NP-A3-B2” value is recorded as “significantly greater ability to raise NAD^+ levels”. Besides, the “effect on TNFα-induced ROS, in words” value with HT-22 cells [1] is recorded as “did not inhibit ROS generation”. As for `COc1ccc(CN(CCC2(C(C)C)CCOC(C)(C)C2)C(=O)c2ccsc2)cc1` (stereo not shown) [JGB-1-127], the “effect on TNFα-induced ROS, in words” value in the experiment with HT-22 cells [1] was “did not inhibit ROS generation”. For `CC(C)C1(CCN(Cc2ccc(N(C)C)cc2)C(=O)c2ccco2)CCOC(C)(C)C1` (stereo not shown) [JGB-1-155], the “concentration response for FK866 in the presence of compound” value in the experiment on THP-1 cells (THP-1 NAD+, Figure 3B) is given as “right-shifted”. Besides, the “potency in THP-1 cell cultures relative to NP-A3-B2” value in the experiment on THP-1 cells (full concentration-response, NAD+) was “improved potency”. Besides, the “ability to raise NAD+ levels compared with parent NP-A3-B2” value with THP-1 cells was “significantly greater ability to raise NAD^+ levels”. The “ROS suppression at 40 μM” value with HT-22 cells [1] is recorded as “significantly suppressed ROS”. In the experiment on HT-22 cells [1] (20 μM and 40 μM compound, Figure 4B), the “reduction of TNFα-induced ROS, confirmation assay” value is “significant reduction”. Moreover, the “ROS levels under glutamate insult” value in the experiment with HT-22 cells [2] is “decreased ROS levels below that of the vehicle-treated control”.

For `COc1ccc(CN(CCC2(C(C)C)CCOC(C)(C)C2)C(=O)c2ccco2)cc1` (stereo not shown) [NP-A3-B2], the “ROS suppression at 40 μM” value in the experiment with HT-22 cells [1] is “significantly suppressed ROS”.

Turning to `COc1ccc(CN(CCC2(C(C)C)CCOC(C)(C)C2)C(=O)c2cnc[nH]2)cc1` (stereo not shown) [JGB-1-147], the “NAMPT enzyme activity, in words” value at NAMPT was “inhibitory activity; also recorded: inhibits NAMPT”. Regarding `O=C(NCc1ccncc1)Nc1ccc(S(=O)(=O)N2CC3CCC(C2)O3)cc1` [SBI-797812, reference compound], the “effect on TNFα-induced ROS, in words” value with HT-22 cells [1] was “no significant effect on ROS”.

Values taken from paper PMC10860701 (ACS Medicinal Chemistry Letters, 2024).
